pIC50: −log10 of the molar value.
Key:
[1] = tested on: A549; assay: Antiproliferative activity against human A549 cells incubated for 48 hrs by MTT assay; assay type: functional, cell-based; conditions: A549, 48 h
[2] = tested on: HeLa; assay: Antiproliferative activity against human HeLa cells incubated for 48 hrs by MTT assay; assay type: functional, cell-based
[3] = tested on: HepG2; assay: Antiproliferative activity against human HepG2 cells incubated for 48 hrs by MTT assay; assay type: functional, cell-based; conditions: HepG2, 48 h
[4] = tested on: HCT-116; assay: Antiproliferative activity against human HCT116 cells incubated for 48 hrs by MTT assay; assay type: functional, cell-based; conditions: HCT-116, 48 h
[5] = tested on: MDA-MB-231; assay: Antiproliferative activity against human MDA-MB-231 cells incubated for 48 hrs by MTT assay; assay type: functional, cell-based; conditions: MDA-MB-231, 48 h
[6] = Inhibition of porcine brain tubulin polymerization measured every 60 secs for 90 mins by DAPI dye based fluorescence assay; design: species or system Sus scrofa

SMILES	pIC50 [1]	pIC50 [2]	pIC50 [3]	pIC50 [4]	pIC50 [5]	pIC50 [6]
COc1ccc(N(C)c2ccnc(Cl)n2)cc1OCCCCC[Se]C#N	< 5.00	< 5.00	< 5.00	< 5.00	< 5.00	
COc1ccc(N(C)c2ccnc(Cl)n2)cc1OCCCCCBr	5.01	5.15	< 5.00	< 5.00	< 5.00	
COc1ccc(N(C)c2ccnc(Cl)n2)cc1O	6.42	7.02	6.33	6.37	6.08	5.21
Cc1cc(N(C)c2ccc([Se]C#N)cc2)nc(C)n1	6.68	6.60	6.81	6.61	6.21	
COc1ccc(N(C)c2cc(C)nc(C)n2)cc1	6.56	6.49	6.08	5.88	5.44	
COc1ccc(N(C)c2ccnc(Cl)n2)cc1OCCCBr	6.06	6.51	5.91	5.71	5.89	
COc1ccc(N(C)c2cc(C)nc(C)n2)cc1[N+](=O)[O-]	5.49	5.43	5.53	5.33	5.46	
COc1ccc(N(C)c2ccnc(Cl)n2)cc1OCCC[Se]C#N	5.43	5.33	5.29	5.41	5.83	
COc1ccc(N(C)c2ccnc(Cl)n2)cc1OCCBr	5.33	5.48	5.11	5.25	5.18	
C[Se]c1ccc(N(C)c2cc(C)nc(C)n2)cc1	6.66	6.86	6.70	6.33	6.49	
COc1ccc(N(C)c2ccnc(Cl)n2)cc1OCCCCBr	6.23	6.51	6.77	5.94	6.00	
COc1ccc(N(C)c2nc(C)nc3ccccc23)cc1 [VERUBULIN]	8.40	8.22		8.30		5.56
COc1ccc(N(C)c2ccnc(Cl)n2)cc1Cl	6.21	6.29	5.58	5.93	5.86	
COc1ccc(N(C)c2cc(C)nc(C)n2)cc1F	6.20	6.33	5.69	6.23	5.56	
COc1ccc(N(C)c2ccnc(Cl)n2)cc1F	6.19	6.62	6.07	6.04	5.89	
COc1ccc(N(C)c2ccnc(Cl)n2)cc1	6.21	6.04	5.67	5.84	5.55	
COc1ccc(N(C)c2ccnc(Cl)n2)cc1OCC[Se]C#N	6.33	6.36	5.78	5.91	5.56	
COc1ccc(N(C)c2cc(C)nc(C)n2)cc1Cl	6.11	6.50	6.10	5.92	5.72	
COc1ccc(N(C)c2ccnc(Cl)n2)cc1OCCCC[Se]C#N	< 5.00	< 5.00	< 5.00	< 5.00	< 5.00	
COc1ccc(N(C)c2ccnc(Cl)n2)cc1[N+](=O)[O-]	5.42	5.33	5.21	5.33	5.09	

— ChEMBL document CHEMBL4190378, “Synthesis and evaluation of new 2-chloro-4-aminopyrimidine and 2,6-dimethyl-4-aminopyrimidine derivatives as tubulin polymerization inhibitors” (Bioorg Med Chem Lett, 2018)
